These results are taken from publication PMC11331138, “Leveraging coevolutionary insights and AI-based structural modeling to unravel receptor–peptide ligand-binding mechanisms” (Proceedings of the National Academy of Sciences of the …, 2024).

Assay [1] deals with D. strictus MIK2. Put plainly: ROS production, D. strictus MIK2 expressed in N. benthamiana. In kind it is cell-based, Diptychocarpus strictus. Particulars: 1 μM SCOOP. The method, then: (§1) removed and ROS production was measured upon addition of a 100-μL assay solution which contained 10 μg/mL
(§2) horseradish peroxidase (P6782, Merck), 10 mM luminol and the treatment (1 μM SCOOP, 0.1 μM flg22 or H2O).
(§3) Luminescence was quantified with a HIGH-RESOLUTION PHOTON COUNTING SYSTEM (HRPCS218, Photek). Four
(§4) technical replicates per biological replicate (specified in Fig. S2) were quantified for each treatment, significant
(§5) differences were determined by performing a two-group Mann-Whitney U Test between each SCOOP treatment
(§6) and the mock treatment. R and the R-packages dplyr (v1.1.2), ggpubr (v.0.6.0), and ggplot2 (v3.4.2) were used to
(§7) analyze and plot the data. The resulting figure was edited in Corel-DRAW Home & Student x7.
(§8) Functional validation MIK2 homologues
(§9) All constructs were created using a hierarchical modular cloning approach facilitated by the MoClo toolkit and the
(§10) MoClo Plant Parts kit (25, 26). For recombinant expression, we used the previously published Arabidopsis MIK2
(§11) sequence (L0 level backbone, CZLp4829) (27), and MIK2 homologues were synthesized with domesticated BsaI […]
(§12) while using diverse Arabidopsis SCOOPs (AA sequences, Dataset S1) and fl g22. Biological replicates were quantified […]
(§13) H2O and rested for a minimum of 30 min in the dark. Two readings were taken in a TECAN SPARK plate reader every […]

For assay [2], the system named is Arabidopsis Col-0. The settings on record: selection criterion; ref [17]; cited from earlier work. An excerpt: To test the conservation of plant responses to SCOOPs, we measured the production of ROS—a hallmark of LRR-RK activation—triggered by SCOOPs. […] The SCOOP SxS motif is unique across known plant-secreted signaling peptides in contrast to the N-terminal asparag ... || The S5 and S7 binding pockets were functionally validated by testing MIK2 variants using three experimental approaches; A) SCOOP12-binding to MIK2 ectodomain in vitro, B) SCOOP12-induced complex formation with its coreceptor BAK1 in vivo, and C) ROS production upon SCOOP treatments as a marker for receptor complex activation (Fig. 4 and SI Appendix, Fig. S6).

Assay [3] has as its system R. islandica MIK2. Description: ROS production, R. islandica MIK2 expressed in N. benthamiana. It is filed as cell-based, Rorippa islandica. The settings on record: 1 μM SCOOP. As for the experimental part: as §1, §2, §3, §4, §5, §6, §7, §8, §9, §10, §11, §12, §13
Assay [4] has as its system B. rapa MIK2. Put plainly: ROS production, B. rapa MIK2 expressed in N. benthamiana. In kind it is cell-based, Brassica rapa. Particulars: 1 μM SCOOP. The method, then:
as §1, §2, §3, §4, §5, §6, §7, §8, §9, §10, §11, §12, §13

Assay [5] deals with MIK2 ectodomain S292A (S7 binding pocket variant) (Arabidopsis thaliana, UniProt Q8VZG8 44-709, S292A). Put plainly: ITC.
Assay [6] addresses T1, MIK2 (MALE DISCOVERER 1-INTERACTING RECEPTOR-LIKE KINASE 2) ectodomain, wild type (Arabidopsis thaliana, UniProt Q8VZG8 44-709).
T1 chain: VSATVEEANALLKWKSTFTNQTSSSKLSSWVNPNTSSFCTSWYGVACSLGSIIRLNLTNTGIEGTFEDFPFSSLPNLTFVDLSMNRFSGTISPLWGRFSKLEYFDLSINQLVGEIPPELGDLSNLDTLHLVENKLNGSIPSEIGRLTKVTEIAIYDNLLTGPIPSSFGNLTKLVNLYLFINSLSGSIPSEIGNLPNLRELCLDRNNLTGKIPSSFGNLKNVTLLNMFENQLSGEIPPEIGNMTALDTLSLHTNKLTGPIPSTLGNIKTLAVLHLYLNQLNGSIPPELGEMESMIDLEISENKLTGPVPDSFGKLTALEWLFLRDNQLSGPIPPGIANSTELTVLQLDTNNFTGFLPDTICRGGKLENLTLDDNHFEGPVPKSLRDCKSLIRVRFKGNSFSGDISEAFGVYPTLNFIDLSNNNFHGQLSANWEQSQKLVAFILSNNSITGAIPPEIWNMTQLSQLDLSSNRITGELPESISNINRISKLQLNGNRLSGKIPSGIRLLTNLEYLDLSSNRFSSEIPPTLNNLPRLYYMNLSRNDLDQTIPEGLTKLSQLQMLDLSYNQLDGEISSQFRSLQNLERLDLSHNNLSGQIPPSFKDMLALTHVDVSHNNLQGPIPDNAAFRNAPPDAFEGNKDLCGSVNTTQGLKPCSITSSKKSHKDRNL
Description: ITC.

Chain of MIK2 ectodomain S292A (S7 binding pocket variant) (Q8VZG8 44-709 S292A): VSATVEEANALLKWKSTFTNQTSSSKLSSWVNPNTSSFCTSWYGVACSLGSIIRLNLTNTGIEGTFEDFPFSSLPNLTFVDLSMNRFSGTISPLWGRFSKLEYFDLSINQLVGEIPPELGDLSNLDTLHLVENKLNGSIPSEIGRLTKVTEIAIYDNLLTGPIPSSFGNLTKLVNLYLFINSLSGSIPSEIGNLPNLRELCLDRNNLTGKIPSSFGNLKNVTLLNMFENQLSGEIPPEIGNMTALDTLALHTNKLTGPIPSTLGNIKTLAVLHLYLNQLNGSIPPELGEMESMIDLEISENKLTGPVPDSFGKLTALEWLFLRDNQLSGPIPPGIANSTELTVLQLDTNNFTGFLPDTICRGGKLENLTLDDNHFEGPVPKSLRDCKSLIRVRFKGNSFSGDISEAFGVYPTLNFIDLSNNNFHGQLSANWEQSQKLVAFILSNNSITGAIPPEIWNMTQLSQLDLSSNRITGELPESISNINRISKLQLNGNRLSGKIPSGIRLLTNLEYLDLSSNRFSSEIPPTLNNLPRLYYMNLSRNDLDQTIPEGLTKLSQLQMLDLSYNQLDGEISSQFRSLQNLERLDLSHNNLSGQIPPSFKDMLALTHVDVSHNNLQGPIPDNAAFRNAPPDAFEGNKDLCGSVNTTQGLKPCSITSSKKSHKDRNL

With YVPPSKSRRGKGP [SCOOP16], the “SCOOP-induced ROS production (in words)” value in assay [1] and in assay [3] was “conferred responsiveness” throughout. Further, in assay [2], the “ROS production upon SCOOP treatment in Arabidopsis” value was “robust ROS production”.
Consider RVPRSKSPPDRQW [SCOOP24], for which the “SCOOP-induced ROS production (in words)” value in assay [4] is listed as “did not lead to significant ROS production”. Besides, in assay [2], the “ROS production upon SCOOP treatment in Arabidopsis” value is given as “robust ROS production”.
Turning to PVRSSQSSQAGGR [SCOOP12 (SERINE RICH ENDOGENOUS PEPTIDE 12), synthetic peptide], the results for the Kd in assay [5] and in assay [6] were 1240 nM and 2120 nM, respectively.
